The term Ki denotes the equilibrium dissociation constant of an inhibitor or competing ligand from its target.

The test system of test [1] is P. falciparum 3D7. Description: microscopy of tightly synchronized asexual blood stage culture. In kind it is cell-based, Plasmodium falciparum. The settings on record: EC90; synchronized ring stage parasites 6–12 hours post invasion. As to the method: P. falciparum 3D7 was cultured according to standard methods, and a 6 hours window was achieved by a combination of Percoll and sorbitol synchronizations. Briefly, schizonts and late trophozoites were isolated from earlier stages according to their density by centrifugation on a continuous gradient of 60% Percoll. The resulting schizonts were allowed to invade uninfected red blood cells for 6 hours and newly infected red blood cells were subjected to a 5% sorbitol treatment for 10 minutes at 37 °C. […] Thin blood smears were Giemsa stained every 6 hours until an entire intraerythrocytic cycle was completed.

The target of test [2] is T1, HsCKα1 (Homo sapiens, UniProt P35790).
T1 construct: made in house
Description: Ki determination and mode of inhibition. In kind it is biochemical. The settings on record: for α, HsCKα1, ATP / α, HsCKα1, Cho: alpha factor of mixed inhibition. How it is done:
(§1) A continuous spectrophotometric 96-well plate assay was established for CK and EK activity based on an assay described. […] The reaction was initiated by addition of enzyme or substrate, as appropriate, and the rate of reaction was monitored by following the decrease in absorbance at 341 nm for 10 min at room temperature using a Thermo Multiska spectrophotometer. Experiments were carried out to ensure that coupling enzymes were not rate-limiting under any of the conditions used and control experiments lacking substrates and/or enzyme were carried out to correct for any background rate.
(§2) Activity was measured at 3–4 different concentrations of inhibitor and a fixed concentration of one substrate (as specified in the standard assay) while the second substrate was varied. GraphPad Prism 6 (GraphPad Software Inc.) was used to fit data to different inhibition models with the best fit being determined by Aike’s Informative Criteria. Kis were estimated from the best-fit model and results were reinforced by linear re-plots of the data (Lineweaver Burke, Dixon, s/v against I)[38].

In test [3] the target is T2, PfCK (Plasmodium falciparum, UniProt Q8IM71).
T2 construct: made in house
T2 sequence (Q8IM71 1-440): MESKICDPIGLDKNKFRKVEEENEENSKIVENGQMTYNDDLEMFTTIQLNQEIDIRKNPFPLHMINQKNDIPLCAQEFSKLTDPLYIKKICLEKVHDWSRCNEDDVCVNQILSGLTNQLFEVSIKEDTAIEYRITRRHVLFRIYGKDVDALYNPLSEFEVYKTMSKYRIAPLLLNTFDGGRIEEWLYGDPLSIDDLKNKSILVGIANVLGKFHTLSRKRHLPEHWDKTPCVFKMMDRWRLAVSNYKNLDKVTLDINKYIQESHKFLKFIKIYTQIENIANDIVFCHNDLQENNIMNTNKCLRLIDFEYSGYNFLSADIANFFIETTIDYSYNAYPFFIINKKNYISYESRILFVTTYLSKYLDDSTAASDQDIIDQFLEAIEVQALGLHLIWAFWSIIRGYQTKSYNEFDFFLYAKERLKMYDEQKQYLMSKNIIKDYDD
Description: Ki determination and mode of inhibition. In kind it is biochemical. As to the method: as §1, §2

Setting [4] is: ATP as variable substrate, read-out: Ki, HsCKα1, ATP.
Where [5] appears, read: read-out: Ki, HsCKα1, Cho, Cho as variable substrate.
The mark [6] stands for this setting: read-out: Ki, HsCKα1, with respect to Cho, mixed inhibition, approximate value.
Setting [7] is: ATP as variable substrate, read-out: Ki, PfCK, ATP.
Setting [8] is: Etn as variable substrate, read-out: Ki, PfCK, Etn.
[9] abbreviates: alpha factor of mixed inhibition, Cho as variable substrate.
The mark [10] stands for this setting: competitive inhibition, approximate value, read-out: Ki, PfCK, with respect to Etn.
The mark [11] stands for this setting: read-out: Ki, PfCK, Cho, Cho as variable substrate.
[12] abbreviates: read-out: Ki, PfCK, against Cho, mixed inhibition, approximate value.

Each structure is given as a SMILES string. Read-outs that look alike come from different tables or passages of the source.

T1 sequence (P35790 whole entry): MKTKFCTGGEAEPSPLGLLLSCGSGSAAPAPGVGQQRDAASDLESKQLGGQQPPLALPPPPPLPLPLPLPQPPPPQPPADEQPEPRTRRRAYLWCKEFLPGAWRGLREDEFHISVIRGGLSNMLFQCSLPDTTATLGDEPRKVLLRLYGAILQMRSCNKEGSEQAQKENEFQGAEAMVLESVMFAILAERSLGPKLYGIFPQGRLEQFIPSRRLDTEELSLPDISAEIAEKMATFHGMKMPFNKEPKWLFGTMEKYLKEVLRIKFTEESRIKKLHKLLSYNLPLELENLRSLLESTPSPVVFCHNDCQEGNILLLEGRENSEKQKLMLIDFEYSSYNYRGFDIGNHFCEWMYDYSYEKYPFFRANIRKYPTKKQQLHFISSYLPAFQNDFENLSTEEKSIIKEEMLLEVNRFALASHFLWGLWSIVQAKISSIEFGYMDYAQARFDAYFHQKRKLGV

`CN(C)c1cc[n+](Cc2ccc(CCCCc3ccc(C[n+]4ccc(N5CCCC5)cc4)cc3)cc2)cc1.[Br-].[Br-]` [BR25]: the “effect on parasite development” value in test [1] is listed as “arrest of parasite development”. For the same compound, the “mode of inhibition, HsCKα1, ATP” value in test [2] (ATP as variable substrate) is reported as “Mixed”. Also, the Ki is 4.1 µM in test [2] (setting [4]); 0.1 µM in test [2] (setting [5]); roughly 0.1 µM in test [2] (setting [6]); 65.5 µM in test [3] (setting [7]); 4 µM in test [3] (setting [8]); roughly 4 µM in test [3] (setting [10]). The Ki in test [3] (setting [11]) is 31.9 µM; in test [3] (setting [12]) it was roughly 35 µM. Besides, in test [2] (Cho as variable substrate), the “mode of inhibition, HsCKα1, Cho” value is reported as “Mixed”. In test [2] (ATP as variable substrate), the “α, HsCKα1, ATP” value is 0.49. In test [2] (Cho as variable substrate), the “α, HsCKα1, Cho” value is given as 139. For the same compound, the “mode of inhibition, PfCK, ATP” value in test [3] (ATP as variable substrate) is reported as “Mixed”. The “mode of inhibition, PfCK, Cho” value in test [3] (Cho as variable substrate) was “Mixed”. In addition, the “mode of inhibition, PfCK, Etn” value in test [3] (Etn as variable substrate) was “Competitive”. The “α, PfCK, ATP” value in test [3] (alpha factor of mixed inhibition, ATP as variable substrate) is recorded as 2.37. Besides, the “α, PfCK, Cho” value in test [3] (setting [9]) stood at 2.025.

As to `CN(C)c1cc[n+](Cc2ccc(-c3ccc(C[n+]4ccc(N5CCCC5)cc4)cc3)cc2)cc1.[Br-].[Br-]` [BR23], in test [1], the “effect on parasite development” value is “arrest of parasite development”. Besides, in test [2] (ATP as variable substrate), the “mode of inhibition, HsCKα1, ATP” value is on record as “Mixed”. For the same compound, the Ki in test [2] (setting [4]) is 3.7 µM; in test [2] (mixed inhibition, approximate value, read-out: Ki, HsCKα1, with respect to ATP), roughly 4 µM; in test [2] (setting [5]), 0.114 µM; in test [2] (setting [6]), roughly 0.1 µM; in test [3] (setting [7]), 116 µM; in test [3] (setting [8]), 4.1 µM. Moreover, the Ki in test [3] (setting [10]) was roughly 4 µM; in test [3] (setting [11]) it was 38.2 µM; in test [3] (setting [12]), roughly 35 µM. In addition, the “mode of inhibition, HsCKα1, Cho” value in test [2] (Cho as variable substrate) was “Mixed”. For the same compound, in test [2] (ATP as variable substrate), the “α, HsCKα1, ATP” value is 0.73. For the same compound, in test [2] (Cho as variable substrate), the “α, HsCKα1, Cho” value was found to be 59. In addition, the “mode of inhibition, PfCK, ATP” value in test [3] (ATP as variable substrate) was “Competitive”. For the same compound, the “mode of inhibition, PfCK, Cho” value in test [3] (Cho as variable substrate) is recorded as “Mixed”. For the same compound, the “mode of inhibition, PfCK, Etn” value in test [3] (Etn as variable substrate) is recorded as “Competitive”. In test [3] (setting [9]), the “α, PfCK, Cho” value is 3.915.

The values above are taken from paper PMC5018819 (Scientific Reports, 2016).
